Target: hCB2 (Homo sapiens, UniProt P34972)
Assay: radioligand displacement binding at CB2 ([3H]CP55940, membranes of CHO-K1 cells over-expressing receptor)
Settings: not given

Sequence of hCB2 (P34972 whole entry): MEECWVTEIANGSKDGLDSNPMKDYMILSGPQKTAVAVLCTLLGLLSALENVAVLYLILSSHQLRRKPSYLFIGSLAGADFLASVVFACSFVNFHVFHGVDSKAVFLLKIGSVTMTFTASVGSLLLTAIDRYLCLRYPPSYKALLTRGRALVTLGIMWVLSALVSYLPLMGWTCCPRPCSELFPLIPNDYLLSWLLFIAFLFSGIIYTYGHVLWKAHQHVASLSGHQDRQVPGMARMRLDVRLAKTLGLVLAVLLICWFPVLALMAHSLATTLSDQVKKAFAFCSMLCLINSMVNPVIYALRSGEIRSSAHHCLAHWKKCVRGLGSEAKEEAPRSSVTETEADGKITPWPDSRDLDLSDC

**Q.** With `O/N=C(\c1ccc(F)cc1)C1CCN(c2ncnc3c2nc(-c2ccccc2Cl)n3-c2ccc(Cl)cc2)CC1` [Compound 28, (Z)-{1-[8-(2-chlorophenyl)-9-(4-chlorophenyl)-9H-purin-6-yl]piperidin-4-yl}(4-fluorophenyl)methanone oxime] as the molecule, how does the Ki read?
**A.** Its Ki is 11 µM.

**Q.** With `CC(C)(C)OC(=O)N1CCN(c2ncnc3c2nc(-c2ccccc2Cl)n3-c2ccc(Cl)cc2)CC1` [Compound 58, tert-Butyl 4-[8-(2-Chlorophenyl)-9-(4-chlorophenyl)-9H-purin-6-yl]piperazine-1-carboxylate] as the molecule, how does the Ki read?
**A.** Its Ki is 3.35 µM.

**Q.** For `Cc1ccccc1CN1CCN(c2ncnc3c2nc(-c2ccccc2Cl)n3-c2ccc(Cl)cc2)CC1` [Compound 100, 8-(2-Chlorophenyl)-9-(4-chlorophenyl)-6-[4-(2-methylbenzyl)piperazin-1-yl]-9H-purine], which Ki is on record?
**A.** Its Ki is 1.25 µM.

**Q.** Which Ki does the source give for `N=C(Nc1ccc(F)cc1)N1CCN(c2ncnc3c2nc(-c2ccccc2Cl)n3-c2ccc(Cl)cc2)CC1` [Compound 116, 4-[8-(2-chlorophenyl)-9-(4-chlorophenyl)-9H-purin-6-yl]-N-(4-fluorophenyl)piperazine-1-carboximidamide] here?
**A.** The Ki was > 6 µM.

Same assay, conditions: read-out: Binding affinity (Ki) at hCB2; displacement of [3H]CP55940, CHO-K1 membranes; average of 3-6 measurements

**Q.** With `O=C(C1COc2ccccc2O1)N1CCN(c2ncnc3c2nc(-c2ccccc2Cl)n3-c2ccc(Cl)cc2)CC1` (stereo not shown) [Compound 61, 8-(2-Chlorophenyl)-9-(4-chlorophenyl)-6-[4-(2,3-dihydro-1,4-benzodioxin-2-ylcarbonyl)piperazin-1-yl]-9H-purine] as the molecule, how does the Ki read?
**A.** The Ki was 0.606 µM.

Tested on: not given
Assay: not given
Settings: not given

**Q.** For `CC1(NC(=O)NC2CCC(F)(F)CC2)CCN(c2ncnc3c2nc(-c2ccccc2Cl)n3-c2ccc(Cl)cc2)CC1`, which melting point is on record?
**A.** Its melting point is 175 to 177 °C.

**Q.** With `O=S(=O)(NC1CCN(c2ncnc3c2nc(-c2ccccc2Cl)n3-c2ccc(Cl)cc2)CC1)c1ccc(F)c(F)c1` [Compound 7, N-{1-[8-(2-Chlorophenyl)-9-(4-chlorophenyl)-9H-purin-6-yl]piperidin-4-yl}-3,4-difluorobenzene-1-sulfonamide] as the molecule, how does the melting point read?
**A.** Its melting point is 183 to 184 °C.

**Q.** For `O=S(=O)(NC1CCN(c2ncnc3c2nc(-c2ccccc2Cl)n3-c2ccc(OC(F)F)nc2)CC1)c1ccc(F)c(F)c1` [Compound 8, N-{1-[8-(2-Chlorophenyl)-9-[6-(difluoromethoxy)pyridin-3-yl]-9H-purin-6-yl]piperidin-4-yl}-3,4-difluorobenzene-1-sulfonamide], which melting point is on record?
**A.** Its melting point is 212 to 213 °C.

**Q.** Which melting point does the source give for `O=S(=O)(NC1CCN(c2ncnc3c2nc(-c2ccccc2Cl)n3-c2ccc(C(F)(F)F)nc2)CC1)c1ccc(F)c(F)c1` [Compound 10, N-{1-[8-(2-Chlorophenyl)-9-[6-(trifluoromethyl)pyridin-3-yl]-9H-purin-6-yl]piperidin-4-yl}-3,4-difluorobenzene-1-sulfonamide] here?
**A.** The melting point was 214 to 215 °C.

**Q.** With `Cc1cc(-n2c(-c3ccccc3Cl)nc3c(N4CCC(NS(=O)(=O)c5ccc(F)c(F)c5)CC4)ncnc32)no1` [Compound 11, N-{1-[8-(2-Chlorophenyl)-9-(5-methyl-1,2-oxazol-3-yl)-9H-purin-6-yl]piperidin-4-yl}-3,4-difluorobenzene-1-sulfonamide] as the molecule, how does the melting point read?
**A.** The melting point was 180 to 182 °C.

**Q.** For `Cn1ccc(-n2c(-c3ccccc3Cl)nc3c(N4CCC(NS(=O)(=O)c5ccc(F)c(F)c5)CC4)ncnc32)n1` [Compound 13, N-{1-[8-(2-Chlorophenyl)-9-(1-methyl-1H-pyrazol-3-yl)-9H-purin-6-yl]piperidin-4-yl}-3,4-difluorobenzene-1-sulfonamide], which melting point is on record?
**A.** The melting point was 206 to 208 °C.

**Q.** With `CCCCC(=O)NC1CCN(c2ncnc3c2nc(-c2ccccc2Cl)n3-c2ccc(C(F)(F)F)nc2)CC1` [Compound 14, N-{1-[8-(2-Chlorophenyl)-9-[6-(trifluoromethyl)pyridin-3-yl]-9H-purin-6-yl]piperidin-4-yl}pentanamide] as the molecule, how does the melting point read?
**A.** The melting point was 192 to 193 °C.

**Q.** For `O=C(NCC1CCCCC1)NC1CCN(c2ncnc3c2nc(-c2ccccc2Cl)n3-c2ccc(C(F)(F)F)nc2)CC1` [Compound 16, 3-{1-[8-(2-Chlorophenyl)-9-[6-(trifluoromethyl)pyridin-3-yl]-9H-purin-6-yl]piperidin-4-yl}-1-(cyclohexylmethyl)urea], which melting point is on record?
**A.** The melting point was 230 to 232 °C.

**Q.** With `O=C(NCC1CCCCC1)NC1CCN(c2ncnc3c2nc(-c2ccccc2Cl)n3-c2ccc(OC(F)F)nc2)CC1` [Compound 17, 3-{1-[8-(2-Chlorophenyl)-9-[6-(difluoromethoxy)pyridin-3-yl]-9H-purin-6-yl]piperidin-4-yl}-1-(cyclohexylmethyl)urea] as the molecule, how does the melting point read?
**A.** The melting point was 141 to 143 °C.

**Q.** Which melting point does the source give for `O=C(Nc1ccccc1F)NC1CCN(c2ncnc3c2nc(-c2ccccc2Cl)n3-c2ccc(C(F)(F)F)nc2)CC1` [Compound 20, 3-{1-[8-(2-Chlorophenyl)-9-[6-(trifluoromethyl)pyridin-3-yl]-9H-purin-6-yl]piperidin-4-yl}-1-(2-fluorophenyl)urea] here?
**A.** Its melting point is 227 to 228 °C.

**Q.** With `O=C(Nc1ccccc1F)NC1CCN(c2ncnc3c2nc(-c2ccccc2Cl)n3-c2ccc(OC(F)F)nc2)CC1` [Compound 21, 3-{1-[8-(2-Chlorophenyl)-9-[6-(difluoromethoxy)pyridin-3-yl]-9H-purin-6-yl]piperidin-4-yl}-1-(2-fluorophenyl)urea] as the molecule, how does the melting point read?
**A.** The melting point was 140 to 142 °C.

**Q.** With `O=C(Nc1ccc(F)cc1F)NC1CCN(c2ncnc3c2nc(-c2ccccc2Cl)n3-c2ccc(Cl)cc2)CC1` [Compound 22, 3-{1-[8-(2-Chlorophenyl)-9-(4-chlorophenyl)-9H-purin-6-yl]piperidin-4-yl}-1-(2,4-difluorophenyl)urea] as the molecule, how does the melting point read?
**A.** The melting point was 140 to 142 °C.

**Q.** For `O=C(Nc1ccc(C(F)(F)F)nc1)NC1CCN(c2ncnc3c2nc(-c2ccccc2Cl)n3-c2ccc(Cl)cc2)CC1` [Compound 24, 3-{1-[8-(2-Chlorophenyl)-9-(4-chlorophenyl)-9H-purin-6-yl]piperidin-4-yl}-1-[6-(trifluoromethyl)pyridin-3-yl]urea], which melting point is on record?
**A.** Its melting point is 140 to 142 °C.

**Q.** Which melting point does the source give for `Cc1cc(NC(=O)N2CCN(c3ncnc4c3nc(-c3ccccc3Cl)n4-c3ccc(Cl)cc3)CC2)no1` [Compound 50] here?
**A.** The melting point was 230 to 231 °C.

**Q.** Which melting point does the source give for `N#Cc1ccccc1CN1CCN(c2ncnc3c2nc(-c2ccccc2Cl)n3-c2ccc(Cl)cc2)CC1` [Compound 75, 6-[4-(2-Cyanobenzyl)piperazin-1-yl]-8-(2-chlorophenyl)-9-(4-chlorophenyl)-9H-purine] here?
**A.** The melting point was 127 to 128 °C.

**Q.** With `FC(F)(F)c1ccccc1CN1CCN(c2ncnc3c2nc(-c2ccccc2Cl)n3-c2ccc(Cl)cc2)CC1` [Compound 111, 8-(2-Chlorophenyl)-9-(4-chlorophenyl)-6-{4-[2-(trifluoromethyl)benzyl]piperazin-1-yl}-9H-purine] as the molecule, how does the melting point read?
**A.** Its melting point is 119 to 121 °C.

**Q.** With `Cc1c(CN2CCN(c3ncnc4c3nc(-c3ccccc3Cl)n4-c3ccc(Cl)cc3)CC2)cnn1C` [Compound 114, 8-(2-Chlorophenyl)-9-(4-chlorophenyl)-6-{4-[(1,5-dimethyl-1H-pyrazol-4-yl)methyl]piperazin-1-yl}-9H-purine] as the molecule, how does the melting point read?
**A.** Its melting point is 138 to 139 °C.

**Q.** Which melting point does the source give for `O=C(NC1CCN(c2ncnc3c2nc(-c2ccccc2Cl)n3-c2ccc(Cl)cc2)CC1)NC1CCC(F)(F)CC1` [Compound 124, 3-{1-[8-(2-Chlorophenyl)-9-(4-chlorophenyl)-9H-purin-6-yl]piperidin-4-yl}-1-(4,4-difluorocyclohexyl)urea] here?
**A.** Its melting point is 228 to 229 °C.

**Q.** Which melting point does the source give for `CC1(NC(=O)NC2CCN(c3ncnc4c3nc(-c3ccccc3Cl)n4-c3ccc(Cl)cc3)CC2)CCC(F)(F)CC1` [Compound 126, 3-{1-[8-(2-Chlorophenyl)-9-(4-chlorophenyl)-9H-purin-6-yl]piperidin-4-yl}-1-(4,4-difluoro-1-methylcyclohexyl)urea] here?
**A.** Its melting point is 160 to 162 °C.

**Q.** Which melting point does the source give for `O=C(NCC1CCC(F)(F)CC1)NC1CCN(c2ncnc3c2nc(-c2ccccc2Cl)n3-c2ccc(Cl)cc2)CC1` [Compound 127, 3-{1-[8-(2-Chlorophenyl)-9-(4-chlorophenyl)-9H-purin-6-yl]piperidin-4-yl}-1-[(4,4-difluorocyclohexyl)methyl]urea] here?
**A.** Its melting point is 135 to 137 °C.

**Q.** For `O=C(NCc1ccc(F)cc1)NC1CCN(c2ncnc3c2nc(-c2ccccc2Cl)n3-c2ccc(Cl)cc2)CC1` [Compound 128, 3-{1-[8-(2-Chlorophenyl)-9-(4-chlorophenyl)-9H-purin-6-yl]piperidin-4-yl}-1-[(4-fluorophenyl)methyl]urea], which melting point is on record?
**A.** Its melting point is 184 to 185 °C.

Target: hCB1 (Homo sapiens, UniProt P21554)
Assay: radioligand displacement binding at CB1 (membranes of CHO-K1 cells over-expressing receptor)
Settings: not given

Sequence of hCB1 (P21554 whole entry): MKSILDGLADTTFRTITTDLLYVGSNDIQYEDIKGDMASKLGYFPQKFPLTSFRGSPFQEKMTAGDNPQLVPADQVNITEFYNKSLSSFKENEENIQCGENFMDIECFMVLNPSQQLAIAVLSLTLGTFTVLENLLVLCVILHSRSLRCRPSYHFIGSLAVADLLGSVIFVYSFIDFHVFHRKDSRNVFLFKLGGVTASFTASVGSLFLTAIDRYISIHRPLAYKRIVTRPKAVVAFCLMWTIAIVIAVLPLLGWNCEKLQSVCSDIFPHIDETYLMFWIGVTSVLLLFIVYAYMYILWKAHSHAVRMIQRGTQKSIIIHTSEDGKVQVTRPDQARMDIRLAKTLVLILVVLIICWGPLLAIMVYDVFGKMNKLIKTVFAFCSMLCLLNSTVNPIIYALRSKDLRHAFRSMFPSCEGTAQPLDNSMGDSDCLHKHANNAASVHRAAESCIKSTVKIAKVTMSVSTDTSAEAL

**Q.** With `O/N=C(\c1ccc(F)cc1)C1CCN(c2ncnc3c2nc(-c2ccccc2Cl)n3-c2ccc(Cl)cc2)CC1` [Compound 28, (Z)-{1-[8-(2-chlorophenyl)-9-(4-chlorophenyl)-9H-purin-6-yl]piperidin-4-yl}(4-fluorophenyl)methanone oxime] as the molecule, how does the Ki read?
**A.** Its Ki is 3 nM.

**Q.** For `O=C(C1COc2ccccc2O1)N1CCN(c2ncnc3c2nc(-c2ccccc2Cl)n3-c2ccc(Cl)cc2)CC1` (stereo not shown) [Compound 61, 8-(2-Chlorophenyl)-9-(4-chlorophenyl)-6-[4-(2,3-dihydro-1,4-benzodioxin-2-ylcarbonyl)piperazin-1-yl]-9H-purine], which Ki is on record?
**A.** Its Ki is 5.3 nM.

Tested on: MDCK
Assay: MDCK BBB Assay
Format: in vitro ADME
Settings: MDCK BBB assay

**Q.** Which “% Permeable” value does the source give for `O=S(=O)(NC1CCN(c2ncnc3c2nc(-c2ccccc2Cl)n3-c2ccc(Cl)cc2)CC1)c1ccc(F)c(F)c1` [Compound 7, N-{1-[8-(2-Chlorophenyl)-9-(4-chlorophenyl)-9H-purin-6-yl]piperidin-4-yl}-3,4-difluorobenzene-1-sulfonamide] here?
**A.** The value was 0%.

**Q.** For `O=C(Nc1ccccc1)NC1CCN(c2ncnc3c2nc(-c2ccccc2Cl)n3-c2ccc(Cl)cc2)CC1` [Compound 18, 3-{1-[8-(2-Chlorophenyl)-9-(4-chlorophenyl)-9H-purin-6-yl]piperidin-4-yl}-1-phenylurea], which “% Permeable” value is on record?
**A.** The value was 0%.

**Q.** With `CC(C)(C)OC(=O)N1CCN(c2ncnc3c2nc(-c2ccccc2Cl)n3-c2ccc(Cl)cc2)CC1` [Compound 58, tert-Butyl 4-[8-(2-Chlorophenyl)-9-(4-chlorophenyl)-9H-purin-6-yl]piperazine-1-carboxylate] as the molecule, how does the “% Permeable” value read?
**A.** The value was 3%.

**Q.** With `O=C(C1COc2ccccc2O1)N1CCN(c2ncnc3c2nc(-c2ccccc2Cl)n3-c2ccc(Cl)cc2)CC1` (stereo not shown) [Compound 61, 8-(2-Chlorophenyl)-9-(4-chlorophenyl)-6-[4-(2,3-dihydro-1,4-benzodioxin-2-ylcarbonyl)piperazin-1-yl]-9H-purine] as the molecule, how does the “% Permeable” value read?
**A.** The value was 0%.

**Q.** For `Clc1ccc(-n2c(-c3ccccc3Cl)nc3c(N4CCN(c5ccccn5)CC4)ncnc32)cc1` [Compound 67, 8-(2-Chlorophenyl)-9-(4-chlorophenyl)-6-(4-pyridin-2-ylpiperazin-1-yl)-9H-purine], which “% Permeable” value is on record?
**A.** The value was 0%.

**Q.** For `COc1ccc(N2CCN(c3ncnc4c3nc(-c3ccccc3Cl)n4-c3ccc(Cl)cc3)CC2)cc1` [Compound 72, 8-(2-Chlorophenyl)-9-(4-chlorophenyl)-6-[4-(4-methoxyphenyl)piperazin-1-yl]-9H-purine], which “% Permeable” value is on record?
**A.** The value was 0%.

**Q.** Which “% Permeable” value does the source give for `N#Cc1ccccc1N1CCN(c2ncnc3c2nc(-c2ccccc2Cl)n3-c2ccc(Cl)cc2)CC1` [Compound 74, 2-{4-[8-(2-Chlorophenyl)-9-(4-chlorophenyl)-9H-purin-6-yl]piperazin-1-yl}benzonitrile] here?
**A.** The value was 0%.

**Q.** With `Clc1ccc(CN2CCN(c3ncnc4c3nc(-c3ccccc3Cl)n4-c3ccc(Cl)cc3)CC2)cc1` [Compound 77, 6-[4-(4-Chlorobenzyl)piperazin-1-yl]-8-(2-chlorophenyl)-9-(4-chlorophenyl)-9H-purine] as the molecule, how does the “% Permeable” value read?
**A.** Its value is ~100%.

Same assay, conditions: MDCK cells

**Q.** Which “MDCK BBB Assay (Basolateral/Apical Peak Area Ratio) Mean” value does the source give for `O=S(=O)(NC1CCN(c2ncnc3c2nc(-c2ccccc2Cl)n3-c2ccc(Cl)cc2)CC1)c1ccc(F)c(F)c1` [Compound 7, N-{1-[8-(2-Chlorophenyl)-9-(4-chlorophenyl)-9H-purin-6-yl]piperidin-4-yl}-3,4-difluorobenzene-1-sulfonamide] here?
**A.** Its value is 0.
